Tests used:
[1] = test system: HepG2 cells; assay: MTT assay, inhibition of tumour cell growth; type: cell-based, human; conditions: 24 h, mean ± s, n = 3
Procedure: (§1) The tumour cell suspension in logarithmic growth phase, containing about 5 × 10^3 cells, was taken and seeded onto a 96-well plate and gently shaken to disperse the cells evenly at the bottom of the plate. The cells were incubated in a constant temperature (37 °C) incubator for 24 h. The old medium was discarded, and 100 μL of the prepared working solution of piperidinone monocarbonyl curcumin analogues at different concentrations was added, and the cells were incubated in a constant temperature incubator for 24 h. Blank medium wells, blank cell wells, and 0.9% DMSO (highest content) wells were set up, with 6 multi-well and 3 multi-plates for each concentration. The discarded old medium was absorbed, and 100 μL of 10% 5 mg/mL MTT working solution was added to each well (operated away from light) and placed in a cell incubator for further incubation for 4 h. The old medium was discarded, and 100 μL of DMSO was added to each well and shaken in an air shaker at 100 RPM for 10 min. The absorbance of the OD value was measured at 490 nm by a multifunctional microplate analyzer. According to Formula (1), the inhibition rates of different piperidones monocarbonyl curcumin analograms on 4 tumour cells were calculated, and IC50 was calculated by GraphPad Prism 8.0:Inhibition rate (%) = (OD blank cell group − OD administration group)/OD blank cell group(1)

[2] = test system: A549 cells; assay: MTT assay, inhibition of tumour cell growth; type: cell-based, human; conditions: 24 h, mean ± s
Procedure: as §1

[3] = test system: Hela cells; assay: MTT assay, inhibition of tumour cell growth; type: cell-based, human; conditions: 24 h, mean ± s, n = 3
Procedure: as §1

[4] = test system: MCF-7 cells; assay: MTT assay, inhibition of tumour cell growth; type: cell-based, human; conditions: 24 h, mean ± s, n = 3
Procedure: as §1

[5] = test system: A549 cells; assay: CCK-8 growth inhibition (dose and time action curves); type: cell-based, human; conditions: different concentrations, 4-72 h
Procedure: A549 cells in the logarithmic growth phase and in a good growth state were collected. After routine digestion and centrifugation, the cells were diluted with DMEM low-glucose complete medium, suspended in a single cell state, and inoculated in 96-well plates. Each well was inoculated with 100 μL cell suspension containing 5 × 10^3 cells. The 96-well plate was shaken to disperse the cells evenly at the bottom of the cell orifice plate, and the cells were cultured in the cell incubator for 24 h. The old medium was discarded, complete medium containing different concentrations of liquid medicine was added, and the culture continued in the cell culture incubator. At 4, 6, 12, 24, 48, and 72 h, the old medium was discarded and 100 μL of medium containing 10% CCK-8 was added. The medium was placed in the cell incubator and continued to incubate for 2 h. The OD value was measured at 450 nm with an enzyme calibration and the inhibition rate of different compounds at different concentrations was calculated. GraphPad Prism 8.0 was used to plot the inhibition rate of cell growth at different concentrations of the five major compounds. The drug duration curves were plotted with time as the X-axis and inhibition rate as the Y-axis.

[6] = test system: L02 cells; assay: MTT assay, toxicity to human normal liver cells; type: cell-based; conditions: 24 h, mean ± s, n = 3
Procedure: The cells were passaged to the fourth generation of L02 cells, and the cell suspension containing about 5 × 10^3 cells was added to each well of the 96-well plate and cultured in a cell culture incubator for 24 h. The old medium was discarded, and different concentrations of liquid medicine (6 porous and 3 plates for each concentration) were added and incubated for 24 h. The old medium was discarded, 10% of 5 mg/mL MTT working solution was added in the dark, and the cells were incubated in a cell incubator for 4 h. The old medium was discarded, 100 μL DMSO was added to each well, and 100 RPM was oscillated on an air shaker for 10 min. The OD value was measured at 490 nm with a multifunctional microplate reader. According to the OD value, the inhibition rate of different piperidone monocarbonyl curcumin analogues on L02 cells was calculated according to Formula (1), and IC50 was calculated by Graph Pad Prism 8.0.

[7] = test system: A549 cells; assay: Cell wound scratch assay (migration); type: cell-based, human; conditions: 6 h; high, medium, and low concentrations
Procedure: A549 cells in logarithmic phase were digested with 0.25% trypsin and blown to single cell suspension with a dropper. The cell density was adjusted to 5 × 10^5 cells/mL. The cells were inoculated on 6-well plates, 2 mL per well, and cultured in a cell incubator at 37 °C, 5% CO2, and saturated humidity for 24 h until the gaps were basically fused. A 10 μL micro pipette tip was used to scratch vertically in a 6-well plate. After washing with PBS solution 3 times, the drug-containing medium was added, 2 mL per well, and three wells were set in each group. The culture plates were placed in a 5% CO2 incubator at 37 °C for 6 h and 24 h and observed and photographed with an inverted fluorescence microscope. The images were obtained by NIS Elements Viewer 4.2.0, and the scratch area and width were calculated. The cell migration rate was calculated by Formula (2):[Cell migration rate (%) = (0 h scratch area − scratch area at different times)/0 h scratch area × 100%](2)

[8] = test system: AKT (protein kinase B); assay: Western blot, AKT level in A549 cells; type: cell-based, human; conditions: 10, 5, 2.5 μmol/L, 24 h
Procedure: (§2) A549 cells in logarithmic growth phase were seeded in 6-well plates at 1 × 10^6 cells/mL per well. The cells were cultured overnight in an incubator. Different concentrations of drug-containing medium of 2,5-2Cl, 2Br-5Cl, 2-Cl, 2-F, benzaldehyde ([…]), curcumin (20 μmol/L), and cisplatin (30 μmol/L) were added, and the blank control […] The RIPA cell lysis buffer containing protease inhibitors was added to the Petri dish to collect the proteins of each experimental group, and the supernatant was collected as a protein sample after ultrasonic centrifugation. Protein quantification was performed by the BCA method. A total of 20 μg protein was separated by 10% SDS-PAGE, and then the protein was transferred to a PVDF membrane. The membrane was blocked with 5% skim milk for 1 h, and the corresponding primary antibody was incubated at 4 °C overnight. After washing the membrane three times with TBST, the bands were incubated with the corresponding secondary antibodies at room temperature for 1 h. After cleaning the membrane with TBST 3 times, the darkroom was developed with ECL luminescence. Using GAPDH as an internal reference, the protein bands were analyzed by ImageJ 1.8.0.

[9] = test system: ERK (extracellular regulated protein kinases); assay: Western blot, ERK level in A549 cells; type: cell-based, human; conditions: 10, 5, 2.5 μmol/L, 24 h
Procedure: as §2

[10] = test system: A549 cells; assay: Flow cytometry apoptosis (Annexin V/PI); type: cell-based, human; conditions: 24 h; 5, 2.5, 1.25 μmol/L
Procedure: The A549 cells in logarithmic growth phase were inoculated in 6-well plates at 1 × 10^6 cells. After resting in the incubator for 24 h, the cells were treated with different concentrations of drugs. The blank control group was added with the medium with the highest concentration of DMSO. After 24 h of culture, cells were collected, washed with PBS, transferred to a flow tube, and resuspended with 100 μL of 1 × Annexin V conjugate. Add 4 μL YF4/88-Annexin N and 5 μL PI working solution. The cells were incubated in the dark at room temperature for 10 min, transferred to a flow cytometer tube, added with 200 μL of 1 × Annexin V conjugate, and immediately detected by flow cytometry.

[11] = test system: A549 cells; assay: Cell morphology by inverted microscope; type: cell-based, human; conditions: 5 μmol/L, 24 h
Procedure: The cells were inoculated in a 6-well plate, and about 1 × 10^6 A549 cells in the logarithmic growth phase were inoculated in each well. After the cells were cultured in a constant temperature incubator for 24 h, the old medium was discarded, and five kinds of piperidone monocarbonyl curcumin analogue solution (5, 10, and 20 μmol/L), curcumin (10, 20, and 40 μmol/L), and 0.9% DMSO were added as the blank control group for 24 h, and then the cell morphology was observed by inverted microscope (200×).

| Compound | IC50 [1] | IC50 ([2]; n = 3) | IC50 ([2]; n = 3, listed as benzaldehyde) | IC50 [3] | IC50 [4] | Inhibition of A549 cell growth (CCK-8) [5] | IC50 [6] | Cell migration rate vs blank control (0.9% DMSO) [7] | Expression level of AKT protein vs control group [8] | ERK protein level vs control group [9] | Apoptosis-inducing effect on A549 cells [10] | Cell morphology [11] |
| --- | --- | --- | --- | --- | --- | --- | --- | --- | --- | --- | --- | --- |
| 3,5-Dibenzylidene-4-piperidone [Benzaldehyde] | 10.3 ± 1.88 µM | 4.66 ± 2.39 µM | < 5 µM | 12.4 ± 2.91 µM | 5.88 ± 1.44 µM | weak at low concentrations | 52.4 ± 1.89 µM | no statistical difference |  |  |  |  |
| O=C1C(=Cc2cc(Cl)ccc2Cl)CNCC1=Cc1cc(Cl)ccc1Cl [2,5-2Cl] | 9.66 ± 1.09 µM | 2.87 ± 2.09 µM |  | 6.62 ± 2.1 µM | 4.72 ± 1.48 µM |  | 48.6 ± 3.59 µM | no statistical difference | most obvious | significantly lower | strongest | most of the cells became round and loose |
